Structures can show the parent of a compound that is named as a salt.
Assays:
human PPARγ receptor = target: T1, human PPARγ receptor (Homo sapiens, UniProt P37231); experiment: Luciferase reporter assay of PPARγ agonist activity (Gal4-PPARγ chimera receptor in CV-1 cells); type: cell-based; details: for Emax at 0.1 µM: CV-1, 0.1 μM compound; for Emax at 0.1 µM / Emax at 1 µM / Emax at 10 µM: luciferase activity with 1 μM Pioglitazone taken as 100, read-out: PPAR γ agonist activity, relative activity; for Emax at 1 µM: CV-1, 1 μM compound; for Emax at 10 µM: CV-1, 10 μM compound; for PPAR γ agonist activity, relative activity: luciferase activity with 1 μM Pioglitazone taken as 100
T1 construct: corresponding to Ser204-Tyr506 for human PPARγ1 receptor and human PPARγ2; expressed in transfected cells; host or cells: CV-1 cells (pSG5-based expression vector)
T1 sequence (P37231 204-505 limits assumed): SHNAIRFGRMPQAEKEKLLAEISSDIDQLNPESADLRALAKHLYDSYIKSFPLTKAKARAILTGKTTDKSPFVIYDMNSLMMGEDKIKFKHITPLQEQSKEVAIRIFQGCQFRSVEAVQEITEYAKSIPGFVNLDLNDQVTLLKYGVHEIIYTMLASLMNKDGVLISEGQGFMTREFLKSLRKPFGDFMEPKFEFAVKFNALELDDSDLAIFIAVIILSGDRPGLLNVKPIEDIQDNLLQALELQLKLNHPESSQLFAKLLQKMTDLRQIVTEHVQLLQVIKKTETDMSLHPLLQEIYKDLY
Experimental: (§1) Measurement of PPARα Agonist Activity and PPARγ Agonist Activity
(§2) 1. Materials for Assay of Luciferase Using Human PPARα and PPARγ Receptors
(§3) The entire procedure was carried out according to the fundamental methods of genetic engineering and the ordinary method in the yeast one-hybrid or two-hybrid system was applied.
(§4) PGL2-UAS5-TK-luc was prepared as a reporter plasmid carrying a response sequence of Gal4 protein as a basic transcription factor of yeast, an enhancer sequence with five repeat part of UAS, a luciferase gene (luc) under the control of timidine kinase (TK) promoter. Specifically, a DNA fragment encoding a TK promoter (−105/+51) on the downstream side of an enhancer sequence comprising two time repeat of UAS was amplified by PCR using pRL-TK carrying a TK promoter (Promega, Trade name: Catalogue No. E2241) as the template and the primers: […]
(§5) After the fragment was cleaved with XhoI-Hind III, pGL2-UAS2-TK-luc was obtained by inserting the resultant fragment into the XhoI-Hind III site located on the upstream side of a luciferase structural gene on pGL2-Basic vector (Promega, Trade name: Catalogue No. E1641).
(§6) After cleavage of a synthetic DNA as an enhancer sequence comprising three time repeat of Gal4 response sequence (SEQ ID NO: 3): 5′-ATTGGTAC([…])×3 AGATCTCGAC) using KpnI and BgIII was carried out, pGL2-UAS5-TK-luc was prepared by inserting the resulting fragment into the KpnI-BgIIIb site of pGL2-UAS2-TK-luc.
(§7) A vector for expression of a chimera receptor protein, in which a ligand binding region of an internuclear receptor human PPARα or PPARγ receptor was fused with the carboxyl terminal of a DNA binding region of yeast Ga14 protein, was prepared as follows:
(§8) The structural gene of pSG5 (STRATAGENE, Trade Name: Catalogue No. 216201) as the basic expression vector was changed for the chimera receptor except that the promoter-enhancer region was maintained as it was.
(§9) The DNA encoding the ligand binding region of the human PPARα or PPARγ receptor was fused on the downstream side of the DNA encoding the DNA binding region and the amino acid sequence from 1 to 147 positions of Ga14 protein so that their reading frames were fitted and the resulting fused DNA was inserted into pSG5 (trade name) on the down stream side of the promoter-enhancer region. In this step, the DNA sequence was arranged so that a signal for transfer into the nucleus (Ala Pro Lys Lys Lys Arg Lys Val Gly (SEQ ID: No: 4) derived from SV-40T antigen was located on the amino terminal of the ligand binding region of PPARα or PPARγ receptor in order to localize the chimera receptor in the nucleus.
(§10) Based on comparison of the human PPAR receptors described in R. Mukherjee et al., [see J. Steroid Biochem. Molec. Biol., Vol. 51, p157 (1994)] and M. E. Green et al., [see Gene Expression, Vol. 4, p281 (1995))], as the structural gene part used for the ligand binding region PPARα or PPARγ, the human PPARα ligand binding region: Ser167-Tyr468; and the PPARγ ligand binding region: Ser176-Tyr478 were used, which had the same sequences corresponding to Ser204-Tyr506 for human PPARγ1 receptor and human PPARγ2, respectively.
(§11) In order to monitor influence against the basic transcription, an expression vector was prepared which carried a DNA encoding only the DNA binding region and the amino acid sequence from 1 to 147 position of Ga14 protein defective in its PPAR ligand binding region and a signal for transfer into the nucleus of SV-40T-antigen.
(§12) 2. Assay of Luciferase Using Human PPARα or PPARγ Receptor
(§13) CV-1 cells used as a host cell were cultivated according to an ordinary method. Specifically, a fetal bovine serum (Intergent, Catalogue No. 1020-90) was added to a Dulbecco's modified Eagle's medium (DMEM) so that the final concentration became 10%. Further, penicillin G (50 U/ml) and streptomycin sulfate (50 μg/ml) were added. Cultivation was conducted in the resulting medium in a 5% carbon dioxide gas at 37° C. […]

human PPARα receptor = target: T2, human PPARα receptor (Homo sapiens, UniProt Q07869); experiment: Luciferase reporter assay of PPARα agonist activity (Gal4-PPARα chimera receptor in CV-1 cells); type: cell-based; details: for Emax at 0.1 µM: CV-1, 0.1 μM compound; for Emax at 0.1 µM / Emax at 1 µM / Emax at 10 µM: luciferase activity with 10 μM Wy-14,643 taken as 100, read-out: PPARα agonist activity, relative activity; for Emax at 1 µM: CV-1, 1 μM compound; for Emax at 10 µM: CV-1, 10 μM compound; for PPARα agonist activity, relative activity: luciferase activity with 10 μM Wy-14,643 taken as 100
T2 construct: expressed in transfected cells; host or cells: CV-1 cells (pSG5-based expression vector)
T2 sequence (Q07869 167-468): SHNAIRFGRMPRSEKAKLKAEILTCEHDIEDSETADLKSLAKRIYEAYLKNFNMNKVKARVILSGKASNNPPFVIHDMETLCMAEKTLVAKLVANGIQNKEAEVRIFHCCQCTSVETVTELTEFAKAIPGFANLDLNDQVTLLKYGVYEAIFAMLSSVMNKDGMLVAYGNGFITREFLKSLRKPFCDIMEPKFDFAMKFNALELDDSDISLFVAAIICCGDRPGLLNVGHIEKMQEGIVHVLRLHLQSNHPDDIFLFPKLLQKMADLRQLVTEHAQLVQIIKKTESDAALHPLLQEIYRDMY
Experimental: as §1, §2, §3, §4, §5, §6, §7, §8, §9, §10, §11, §12, §13

SMILES	Emax at 0.1 µM (human PPARγ receptor)	Emax at 1 µM (human PPARγ receptor)	Emax at 10 µM (human PPARγ receptor)	Emax at 0.1 µM (human PPARα receptor)	Emax at 1 µM (human PPARα receptor)	Emax at 10 µM (human PPARα receptor)	PPAR γ agonist activity, relative activity (human PPARγ receptor; 0.1 μM compound)	PPAR γ agonist activity, relative activity (human PPARγ receptor; 1 μM compound)	PPAR γ agonist activity, relative activity (human PPARγ receptor; 10 μM compound)	PPARα agonist activity, relative activity (human PPARα receptor; 0.1 μM compound)	PPARα agonist activity, relative activity (human PPARα receptor; 1 μM compound)	PPARα agonist activity, relative activity (human PPARα receptor; 10 μM compound)
CCOC(=O)C(Cc1ccc(OCc2cnc3ccc(OC)cc3c2OC(C)C)cc1)OCC (stereo not drawn) [Example 1 (101), ethyl 2-ethoxy-3-{[4-(4-isopropoxy-6-methoxyquinoline-3-yl)methyloxy]phenyl}propanoate]	98.6%	127%	102%	0.2%	0.9%	28.7%	–	–	–	–	–	–
CCOC(Cc1ccc(OCc2cnc3cc(C)cc(C)c3c2OC(C)C)cc1)C(=O)O (stereo not drawn) [Example 5 (71), 2-ethoxy-3-{[4-(4-isopropoxy-5,7-dimethylquinoline-3-yl)methyloxy]phenyl}propanoic acid]	0.3%	0.4%	11.6%	0.3%	0.5%	28.4%	–	–	–	–	–	–
CCOC(Cc1ccc(OCc2cnc3ccc(CC)cc3c2OC(C)C)cc1)C(=O)O (stereo not drawn) [Example 6 (67), 2-ethoxy-3-{[4-(4-isopropoxy-6-ethylquinoline-3-yl)methyloxy]phenyl}propanoic acid]	122%	140%	125%	5.7%	47.1%	74%	–	–	–	–	–	–
CCCCCCCCOc1c(COc2ccc(CC(OCC)C(=O)O)cc2)cnc2ccc(OC)cc12 (stereo not drawn) [Example 7 (63), 2-ethoxy-3-{[4-(4-octyloxy-6-methoxyquinoline-3-yl)methyloxy]phenyl}propanoic acid]	13.5%	63.3%	114%	0.4%	4.5%	64.4%	–	–	–	–	–	–
CCOC(Cc1ccc(OCc2cnc3cc(OC)c(OC)cc3c2OC(C)C)cc1)C(=O)O (stereo not drawn) [Example 8 (65), 2-ethoxy-3-{[4-(4-isopropoxy-6,7-dimethoxyquinoline-3-yl)methyloxy]phenyl}propanoic acid]	1.3%	13%	107%	0.3%	0.3%	1.5%	–	–	–	–	–	–
CCOC(Cc1ccc(OCc2ccc3ncccc3c2)cc1)C(=O)O (stereo not drawn) [Example 10 (32), 2-ethoxy-3-{[4-(quinoline-6-yl)methyloxy]phenyl}propanoic acid]	–	–	–	–	–	–	1.0	20.8	123.9	0.2	0.3	50.1
CCOC(Cc1ccc(OCc2cc(OC)c3ccccc3n2)cc1)C(=O)O (stereo not drawn) [Example 11 (99), 2-ethoxy-3-{[4-(4-methoxyquinoline-2-yl)methyloxy]phenyl}propanoic acid]	75.2%	115%	106%	25.2%	64.3%	68.6%	–	–	–	–	–	–
CCOC(Cc1cccc(OCc2cnc3ccc(OC)cc3c2OC(C)C)c1)C(=O)O (stereo not drawn) [Example 20 (114), 2-ethoxy-3-{[3-(4-isopropoxy-6-methoxyquinoline-3-yl)methyloxy]phenyl}propanoic acid]	9.3%	91%	110%	–	–	–	–	–	–	–	–	–
CCOC(Cc1ccc(OC)c(OCc2cnc3ccc(OC)cc3c2OC(C)C)c1)C(=O)O (stereo not drawn) [Example 21 (118), 2-ethoxy-3-{[3-(4-isopropoxy-6-methoxyquinoline-3-yl)methyloxy]-4-methoxyphenyl}propanoic acid]	1.4%	1.9%	22.4%	–	–	–	–	–	–	–	–	–
COC(=O)C(Cc1ccc(OCc2cnc3ccc(OC)cc3c2OC(C)C)cc1)C(=O)OC [Example 22 (120), dimethyl{[4-(4-isopropoxy-6-methoxyquinoline-3-yl)methyloxy]phenyl}methylmalonate hydrochloride]	3.5%	62.3%	108%	–	–	–	–	–	–	–	–	–
CCC(=O)C(Cc1ccc(OCc2cnc3ccc(OC)cc3c2OC(C)C)cc1)C(=O)OC (stereo not drawn) [Example 23 (137), methyl 2-{[4-(4-isopropoxy-6-methoxyquinoline-3-yl)methyloxy]phenylmethyl}-3-oxopentanoate hydrochloride]	2.8%	30.5%	63.1%	–	–	–	–	–	–	–	–	–
CNC(=O)/C(=C/c1ccc(OCc2cnc3ccc(OC)cc3c2OC(C)C)cc1)C(C)=O [Example 25 (144), 2-{[4-(4-isopropoxy-6-methoxyquinoline-3-yl)methyloxy]phenylmethylene}-3-oxobutanoic acid N-methylamide hydrochloride]	0.7%	1.9%	6.2%	–	–	–	–	–	–	–	–	–
CCOC(=O)C(Cc1cccc(OCc2cnc3ccc(OC)cc3c2OC(C)C)c1)C(=O)OCC [Example 27 (128), diethyl{[3-(4-isopropoxy-6-methoxyquinoline-3-yl)methyloxy]phenyl}methylmalonate hydrochloride]	1.2%	2.1%	42.5%	–	–	–	–	–	–	–	–	–
CCOC(=O)C(Cc1ccc(OC)c(OCc2cnc3ccc(OC)cc3c2OC(C)C)c1)C(=O)OCC [Example 28 (129), diethyl{[3-(4-isopropoxy-6-methoxyquinoline-3-yl)methyloxy]-4-methoxyphenyl}methylmalonate hydrochloride]	1.3%	2.1%	14.7%	–	–	–	–	–	–	–	–	–

From patent US20030212100A1, “Quinoline derivatives and medicinal use thereof” (priority 2000, published 2003)
